Results as given in patent publication US8815857B2 (Boehringer Ingelheim International GmbH, priority 2011, dated 2014).
In brackets after ≈: the same amount, converted by molar mass.

Assays:
[1] = Assessment of solubility: HT solubility in pION buffer, UV spectrophotometry; conditions: for solubility: kinetic from dmso stock
[2] = target: T1, human soluble guanylate cyclase alpha 1 and beta 1 subunits (sGC) stably expressed in Chinese hamster ovary cells (Homo sapiens, UniProt Q02108+Q02153); test: sGC cellular activator assay: cGMP in CHO cells expressing human sGC, preincubated with ODQ; assay type: cell-based; conditions: 40 microM ODQ preincubation, 30 min at room temperature, presence or absence of 50% human serum not given, read-out: EC50 nM, Activity of Compounds in Cellular Assay
T1 construct: expressed in transfected cells; host or cells: Chinese hamster ovary cells, stably transfected
T1 sequence (Q02108 1-690 partner): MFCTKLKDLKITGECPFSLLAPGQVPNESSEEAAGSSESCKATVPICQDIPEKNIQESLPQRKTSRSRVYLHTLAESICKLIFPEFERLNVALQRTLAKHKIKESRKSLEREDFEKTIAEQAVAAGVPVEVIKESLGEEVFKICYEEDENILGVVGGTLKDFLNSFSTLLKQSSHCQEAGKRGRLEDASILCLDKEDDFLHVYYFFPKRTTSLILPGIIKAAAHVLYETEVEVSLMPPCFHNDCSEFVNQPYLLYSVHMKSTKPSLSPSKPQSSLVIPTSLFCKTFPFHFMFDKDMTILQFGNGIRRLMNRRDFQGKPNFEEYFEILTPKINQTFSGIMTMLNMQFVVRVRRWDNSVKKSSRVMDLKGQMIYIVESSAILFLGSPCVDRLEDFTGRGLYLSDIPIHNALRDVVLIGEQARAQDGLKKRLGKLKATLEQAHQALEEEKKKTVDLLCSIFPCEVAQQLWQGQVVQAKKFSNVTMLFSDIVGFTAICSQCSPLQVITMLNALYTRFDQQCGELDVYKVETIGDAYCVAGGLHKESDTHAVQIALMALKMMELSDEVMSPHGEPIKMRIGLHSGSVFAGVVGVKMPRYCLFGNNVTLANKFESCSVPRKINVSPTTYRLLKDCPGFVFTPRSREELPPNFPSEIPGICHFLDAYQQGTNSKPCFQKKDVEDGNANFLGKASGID
T1 sequence (Q02153 1-619): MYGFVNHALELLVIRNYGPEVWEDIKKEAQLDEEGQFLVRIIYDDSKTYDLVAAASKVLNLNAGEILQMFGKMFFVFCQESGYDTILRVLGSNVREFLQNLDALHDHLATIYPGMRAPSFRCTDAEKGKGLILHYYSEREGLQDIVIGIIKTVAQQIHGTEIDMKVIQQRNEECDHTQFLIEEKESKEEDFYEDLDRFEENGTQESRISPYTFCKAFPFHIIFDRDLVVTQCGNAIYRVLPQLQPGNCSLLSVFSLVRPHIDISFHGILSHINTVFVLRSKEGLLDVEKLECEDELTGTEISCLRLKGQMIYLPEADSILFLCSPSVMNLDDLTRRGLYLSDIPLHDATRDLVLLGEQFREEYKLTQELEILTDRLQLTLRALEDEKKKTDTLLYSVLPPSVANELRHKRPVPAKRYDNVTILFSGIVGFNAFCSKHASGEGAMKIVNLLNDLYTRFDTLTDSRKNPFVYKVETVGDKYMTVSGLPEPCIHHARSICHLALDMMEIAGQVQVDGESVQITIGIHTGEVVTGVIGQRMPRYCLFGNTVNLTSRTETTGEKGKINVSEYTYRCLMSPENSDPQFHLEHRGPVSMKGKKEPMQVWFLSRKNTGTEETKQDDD
Description: The sGC cellular activator assay is performed in the presence and absence of 50% human serum (HS) using Chinese hamster ovary cells that have been stably transfected to express the human soluble guanylate cyclase alpha 1 and beta 1 subunits (sGC). Cells are preincubated with 40 microM 1H-[1,2,4]oxadiazolo[4,3-a]quinoxalin-1-one (ODQ), an sGC inhibitor, for one hour in buffer containing 0.1% bovine serum albumin and 3-isobutyl-1-methylxanthine (IBMX). Concentration response curves are prepared for test compounds in DMSO. An intermediate dilution of the compounds is performed in either buffer containing IBMX or type AB HS containing IBMX. Diluted compounds are added to cells and they are incubated at room temperature for thirty minutes. cGMP is measured using a CisBio homogeneous time resolved fluorescence kit and the EC50 is calculated for each compound.

[3] = target: T2, Recombinant human soluble guanylate cyclase (sGC), alpha 1 / beta 1 subunits, heme-free (Homo sapiens, UniProt Q02108+Q02153); test: Molecular assay: cGMP formation by heme-free recombinant sGC (CisBio cGMP detection kit); assay type: biochemical; conditions: 300 pM heme-free sGC, 37° C., 60 min, cGMP readout; read-out: EC50 nM, Activity of Compounds in Molecular Assay
T2 construct: histidine tag (C); made in house; host or cells: Sf9 insect cells (baculovirus coinfection)
T2 sequence (Q02108 1-690 partner): T1 sequence (Q02108 1-690 partner)
T2 sequence (Q02153 1-619): T1 sequence (Q02153 1-619)
Method in brief: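 Heme-free His-tagged sGC (Sf9-expressed, Tween 20-treated lysate) at 300 pM incubated with compounds (1% DMSO) for 60 min at 37° C in MOPS pH 6.8 with 50 nM GTP, IBMX, TCEP. cGMP quantified by HTRF against calibration curve; EC50 from combined undiluted/diluted values.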

[4] = pH 6.8, aqueous buffer, Solubility (pH 6.8), pH 6.8
[5] = pION system solution buffer, pH 4.5, pH 4.5, aqueous buffer, Solubility (pH 4.5), pH 4.5 buffer, 16-19 h incubation, 1.0% DMSO
[6] = pION system solution buffer, pH 7.4, pH 7.4, aqueous buffer, Solubility (pH 7.4), pH 7.4 buffer, 16-19 h incubation, 1.0% DMSO

SMILES	solubility [1, 4] [µg/mL]	solubility [1, 5] [µg/mL]	EC50 [2] [nM]	solubility [1, 6] [µg/mL]	EC50 [3] [nM]	Solubility (pH 4.5) ([1]; pH 4.5 buffer, 16-19 h incubation, 1.0% DMSO) [μg/mL]
Cc1ccc(OCc2ccc(CN3CCOCC3)cc2C)c(-c2csc(N3CC4(CC4C(=O)O)C3)n2)c1 (stereo not drawn) [Compound 257]	45 (≈ 86.6 µM)	56 (≈ 108 µM)	540	–	–	–
Cc1ccc(OCc2ccc(C(=O)N3CCOCC3)cc2C)c(-c2csc(N3C[C@@H]4[C@H](C3)[C@@H]4C(=O)O)n2)c1 [Compound 247]	70 (≈ 131 µM)	46 (≈ 86.2 µM)	720	–	–	–
Cc1ccc(OCc2ccc(CN3CCN(C(=O)C4CC4)CC3)cc2C)c(-c2csc(N3CC(CC(=O)O)C3)n2)c1 [Compound 249]	51 (≈ 88.7 µM)	45 (≈ 78.3 µM)	140	–	–	–
Cc1ccc(OCc2ccc(C(=O)N(C)CCN(C)C)cc2C)c(-c2csc(N3C[C@H]4CC[C@@H](C3)[C@H]4C(=O)O)n2)c1 [Compound 305]	67 (≈ 116 µM)	62 (≈ 107 µM)	140	–	–	–
Cc1ccc(OCc2ccc(CN3CCOCC3)cc2C)c(-c2csc(N3CCC4CC4(C(=O)O)CC3)n2)c1 (stereo not drawn) [Compound 231]	–	–	150	–	–	–
Cc1cc(CN2CCOCC2)ccc1COc1ccc(F)cc1-c1csc(N2CC3CCC(C2)C3C(=O)O)n1 (stereo not drawn) [Compound 77]	–	22 (≈ 39.9 µM)	–	16 (≈ 29 µM)	4400	–
COCCNCc1ccc(COc2ccc(C#N)cc2-c2csc(N3CCC(C(=O)O)CC3)n2)c(C)c1 [Compound 172]	–	41 (≈ 78.7 µM)	–	> 63	5600	–
Cc1ccc(OCc2ccc(C(=O)N(C)CC3CCCCC3)cc2C#N)c(-c2csc(N3CCC(C(=O)O)CC3)n2)c1 [Compound 125]	–	–	–	14 (≈ 23.9 µM)	74	0.1
Cc1cc(CN2CCOCC2)ccc1COc1ccc(F)cc1-c1csc(N2CCC(C(=O)O)CC2C)n1 (stereo not drawn) [Compound 61]	–	44 (≈ 81.5 µM)	–	> 61	440	–
Cc1ccc(OCc2ccc(C(=O)N3CCOCC3)cc2C)c(-c2csc(N3CCC(C(=O)O)CC3)n2)c1 [Compound 49]	–	13 (≈ 24.3 µM)	–	> 53	130	–
Cc1cc(CN2CCOCC2)ccc1COc1ccc(C#N)cc1-c1csc(N2CCC(C(=O)O)CC2)n1 [Compound 168]	–	36 (≈ 67.6 µM)	–	> 57	730	–
Cc1cc(C(=O)N2CCCCC2)ccc1COc1ccccc1-c1csc(N2CC3CCC(C2)C3C(=O)O)n1 (stereo not drawn) [Compound 67]	–	0.2 (≈ 0.366 µM)	–	> 54	2.5	–
Cc1ccc(OCc2ccc(CN3CCS(=O)(=O)CC3)cc2C)c(-c2csc(N3CCC(C(=O)O)CC3C(F)(F)F)n2)c1 (stereo not drawn) [Compound 153]	–	0.2 (≈ 0.314 µM)	–	> 63	43	–

Continued, values first:

solubility [1, 4] [µg/mL]	solubility [1, 5] [µg/mL]	EC50 [2] [nM]	solubility [1, 6] [µg/mL]	EC50 [3] [nM]	Solubility (pH 4.5) ([1]; pH 4.5 buffer, 16-19 h incubation, 1.0% DMSO) [μg/mL]	SMILES
57 (≈ 97.3 µM)	0.42 (≈ 0.717 µM)	3.8	–	–	–	Cc1ccc(OCc2ccc(CN3CCN(C)C(=O)C3)cc2C#N)c(-c2csc(N3C[C@H]4CC[C@@H](C3)[C@H]4C(=O)O)n2)c1 [Compound 354]
6.1 (≈ 10.3 µM)	0.16 (≈ 0.271 µM)	79	–	–	–	Cc1ccc(OCc2ccc(C(=O)N3CCCC(C)(O)C3)cc2C)c(-c2csc(N3C[C@H]4CC[C@@H](C3)[C@H]4C(=O)O)n2)c1 (stereo partly drawn) [Compound 336]
11 (≈ 19.2 µM)	2.3 (≈ 4.02 µM)	24	–	–	–	Cc1ccc(OCc2ccc(CN3CCO[C@H](C)C3)cc2C#N)c(-c2csc(N3C[C@H]4CC[C@@H](C3)[C@H]4C(=O)O)n2)c1 [Compound 357]
1.3 (≈ 2.13 µM)	0.21 (≈ 0.344 µM)	10	–	–	–	Cc1ccc(OCc2ccc(CN(C)[C@@H]3CCS(=O)(=O)C3)cc2C)c(-c2csc(N3C[C@H]4CC[C@@H](C3)[C@H]4C(=O)O)n2)c1 [Compound 351]
34 (≈ 56.7 µM)	< 0.1	66	> 53	–	–	Cc1ccc(OCc2ccc(C(=O)N(C)Cc3ccnn3C)cc2C)c(-c2csc(N3C[C@H]4CC[C@@H](C3)[C@H]4C(=O)O)n2)c1 [Compound 318]
34 (≈ 63.9 µM)	–	17	–	–	–	Cc1ccc(OCc2ccc(C(=O)N3CCC3)cc2C)c(-c2csc(N3C[C@H]4CC[C@@H](C3)[C@H]4C(=O)O)n2)c1 [Compound 361, 3-(4-{2-[4-(azetidine-1-carbonyl)-2-methyl-benzyloxy]-5-methyl-phenyl}-thiazol-2-yl)-3-aza-bicyclo[3.2.1]octane-8(syn)-carboxylic acid]
71 (≈ 120 µM)	0.27 (≈ 0.456 µM)	41	37 (≈ 62.5 µM)	–	–	Cc1ccc(OCc2ccc(C(=O)N(C)CCC(C)(C)O)cc2C)c(-c2csc(N3C[C@H]4CC[C@@H](C3)[C@H]4C(=O)O)n2)c1 [Compound 348]
40 (≈ 73.4 µM)	< 0.1	52	–	–	–	Cc1ccc(OCc2ccc(C(=O)N(C)CC#N)cc2C)c(-c2csc(N3C[C@H]4CC[C@@H](C3)[C@H]4C(=O)O)n2)c1 [Compound 330]
35 (≈ 60.9 µM)	1.5 (≈ 2.61 µM)	3.4	–	–	–	Cc1ccc(OCc2ccc(CN3CCN(C)C(=O)C3)cc2C)c(-c2csc(N3CC4CCC(C3)C4C(=O)O)n2)c1 (stereo not drawn) [Compound 289]
54 (≈ 90 µM)	< 0.1	57	> 60	–	–	Cc1ccc(OCc2ccc(C(=O)N(C)Cc3cnn(C)c3)cc2C)c(-c2csc(N3C[C@H]4CC[C@@H](C3)[C@H]4C(=O)O)n2)c1 [Compound 315]
7 (≈ 12 µM)	0.77 (≈ 1.32 µM)	9.2	–	–	–	Cc1ccc(OCc2ccc(CN3CCOC(C#N)C3)cc2C#N)c(-c2csc(N3C[C@H]4CC[C@@H](C3)[C@H]4C(=O)O)n2)c1 (stereo partly drawn) [Compound 355]
21 (≈ 35.7 µM)	0.69 (≈ 1.17 µM)	4.3	–	–	–	Cc1ccc(OCc2ccc(CN3CCN(C)C(=O)C3C)cc2C)c(-c2csc(N3CC4CCC(C3)C4C(=O)O)n2)c1 (stereo not drawn) [Compound 290]
0.3 (≈ 0.499 µM)	4.6 (≈ 7.66 µM)	7.3	–	–	–	Cc1ccc(OCc2ccc(CN3CCN(C(=O)C4CC4)CC3)cc2C)c(-c2csc(N3CC[C@@]4(C(=O)O)C[C@H]4C3)n2)c1 [Compound 225]
61 (≈ 104 µM)	59 (≈ 100 µM)	99	–	–	–	Cc1ccc(OCc2ccc(C(=O)N3CC[C@@H](N(C)C)C3)cc2C)c(-c2csc(N3C[C@H]4CC[C@@H](C3)[C@H]4C(=O)O)n2)c1 [Compound 310]
–	–	10	–	–	–	Cc1ccc(OCc2ccc(CN3CCN(C)C(=O)C3)cc2C)c(-c2csc(N3CCC(C(=O)O)CC3)n2)c1 [Compound 292]
–	–	36	–	–	–	Cc1ccc(OCc2ccc(C(=O)N3CCCCC3)cc2C)c(-c2csc(N3CC[C@@H](C(=O)O)[C@H]3C)n2)c1 [Compound 240]
–	–	11	–	–	–	Cc1ccc(OCc2ccc(C(=O)N3CCCCC3)cc2OC(F)(F)F)c(-c2csc(N3C[C@H]4CC[C@@H](C3)[C@H]4C(=O)O)n2)c1 [Compound 279]
